tested on: TPOR/4Rα hybrid receptor; assay: Ba/F3 luciferase reporter gene assay, TPO competition (antagonist activity); assay type: cell-based, human; settings: 5 nM TPO and 500 nM of each compound; FIG. 3
Description: The expression vector for the TPOR/4Rα hybrid receptor, pcDNATPOR/4Rα, was constructed as follows. A PCR reaction was performed on a cDNA clone containing the human TPO receptor coding sequence using oligonucleotides TpoR-Xho-lo (5′-[…]-3′; SEQ ID NO.: 18) and TpoR-Xho-up (5′-[…]-3′; SEQ ID No.: 19). The resulting PCR product was digested with XhoI and ligated into similarly digested vector pASKcDNA-NH to yield pASKcDNA-NH-TPOR. pASKcDNA-NH resulted from the subcloning of an NheI/HindIII fragment of pcDNA/4Rα (Krause et al., 2004) in pASK21TETIsendc1/2 (Christmann et al., 1999). From the vector pASKcDNA-NH-TPOR the NheI/HindIII fragment containing the TPOR coding sequence was ligated to similarly digested pcDNA/4Rα to yield pcDNATPOR/4Rα. The STAT6 reporter gene construct pIεTATALuc was generated by insertion of a synthetic Hind III/Bam HI fragment representing the entire promoter/enhancer-sequence from the IL-4 responsive region of the human Iε promoter (Ezernieks et al., 1996) into luciferase expression plasmid pTATALuc+ (Altschmied et al., 1997).
The murine pre-B cell line Ba/F3 was cultured as described (Lischke et al., 1995). Cells were transfected using the cell line Nucleofector™ kit V (Amaxa, Germany). Briefly, 8×10^6 cells were starved for 2 h in RPMI 1640/10% FCS, centrifuged and resuspended in 100 μl of transfection reagent V supplemented with 4 μg of expression vector pcDNATPOR/4Rα and 1 μg of reporter gene construct pIεTATALuc. Transfection was performed with the Nucleofector™ device applying program T16. Each transfection batch was recovered in 3.5 ml RPMI 1640/10% FCS and seeded at 2×10^5 cells/100 μl per well in a 96-well cell culture plate. Cells were left untreated for 1 h and then supplemented with various concentrations of hTPO (Immunotools, Germany) and individual microprotein candidates, respectively, to a total volume of 200 μl. For TPO competition assays cell aliquots were preincubated with individual microprotein samples 1 hour before stimulation with hTPO. After incubation for 12 h at 37° C., 5% CO2, cell lysates were prepared and luciferase activity was measured as described previously (Krause et al., 2004).
These cells were transfected with a gene encoding a fusion of the hTPOR extracellular domain and the intracellular 4Rα domain from human […] and co-transfected with a reporter gene construct pIεTATALuc (Krause et al., 2004). […] The same result was obtained for SE-AG-TP-040 in some assays. On the other hand, agonistic activity was shown for all the microproteins so far tested (Table 1).

Sequence of TPOR/4Rα hybrid receptor (P40238 26-491 limits assumed): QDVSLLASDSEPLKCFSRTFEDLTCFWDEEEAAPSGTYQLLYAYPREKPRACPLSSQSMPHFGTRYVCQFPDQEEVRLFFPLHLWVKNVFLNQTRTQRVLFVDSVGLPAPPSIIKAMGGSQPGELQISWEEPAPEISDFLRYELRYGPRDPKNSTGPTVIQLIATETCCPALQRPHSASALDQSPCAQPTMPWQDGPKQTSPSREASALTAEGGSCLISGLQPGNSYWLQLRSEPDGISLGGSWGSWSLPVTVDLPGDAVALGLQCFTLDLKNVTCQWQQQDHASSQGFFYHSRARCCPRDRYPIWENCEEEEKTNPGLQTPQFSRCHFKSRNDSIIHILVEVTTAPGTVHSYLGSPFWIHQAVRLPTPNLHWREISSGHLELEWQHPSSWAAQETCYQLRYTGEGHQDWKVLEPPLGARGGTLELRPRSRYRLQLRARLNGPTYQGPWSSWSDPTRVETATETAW

Row | Substance | Inhibition of TPO receptor activation (TPO antagonist)
1 | GCVRLHESCLGQQVPCCDPAATCiegptlrqwlaaraCKGS (GCVRLHESCLGQQVPCCDPAATCIEGPTLRQWLAARACKGS) [SE-AG-TP-030] | able to act as TPO antagonists
2 | GCiegptlrqwlaaraCKQDSDCLAGCVCGPNGFCGS (GCIEGPTLRQWLAARACKQDSDCLAGCVCGPNGFCGS) [SE-ET-TP-020] | able to act as TPO antagonists
3 | GCVRLHESCLGQQVPCCDPAATCGGTALAiegptlrqwlaaraCKGS (GCVRLHESCLGQQVPCCDPAATCGGTALAIEGPTLRQWLAARACKGS) [SE-AG-TP-040] | able to act as TPO antagonists
4 | GCiegptlrqwlaaCKQDSDCLAGCVCGPNGFCGS (GCIEGPTLRQWLAACKQDSDCLAGCVCGPNGFCGS) [SE-ET-TP-030] | able to act as TPO antagonists
5 | iegptlrqwlaara (IEGPTLRQWLAARA) [SE-LN-TP-020, reference compound] | able to act as TPO antagonists

tested on: platelet count; assay: In vivo platelet expansion test; settings: Balb/c mice, 10 and 1000 μg/kg twice daily s.c., after 5 days; FIG. 7
Description: To assess the in vivo function of SE-ET-TP-020, Balb/c mice (n=5) were treated twice daily with 10 and 1000 μg/kg, respectively, SE-ET-TP-020 by subcutaneous injection. After 5 days, platelet count was measured in comparison to corresponding placebo experiments.

Row | Substance | Platelet count versus placebo
6 | GCiegptlrqwlaaraCKQDSDCLAGCVCGPNGFCGS (GCIEGPTLRQWLAARACKQDSDCLAGCVCGPNGFCGS) [SE-ET-TP-020] | doubling of the platelet count
